Data on 22 compounds can be found in patent US20250345329A1, “HETEROARYL DERIVATIVE COMPOUND AND USES THEREOF” (VORONOI, INC., priority 2022, published 2025).

T1 sequence (P00533 with tags, fused parts or gaps DEL746-750/T790M/C797S): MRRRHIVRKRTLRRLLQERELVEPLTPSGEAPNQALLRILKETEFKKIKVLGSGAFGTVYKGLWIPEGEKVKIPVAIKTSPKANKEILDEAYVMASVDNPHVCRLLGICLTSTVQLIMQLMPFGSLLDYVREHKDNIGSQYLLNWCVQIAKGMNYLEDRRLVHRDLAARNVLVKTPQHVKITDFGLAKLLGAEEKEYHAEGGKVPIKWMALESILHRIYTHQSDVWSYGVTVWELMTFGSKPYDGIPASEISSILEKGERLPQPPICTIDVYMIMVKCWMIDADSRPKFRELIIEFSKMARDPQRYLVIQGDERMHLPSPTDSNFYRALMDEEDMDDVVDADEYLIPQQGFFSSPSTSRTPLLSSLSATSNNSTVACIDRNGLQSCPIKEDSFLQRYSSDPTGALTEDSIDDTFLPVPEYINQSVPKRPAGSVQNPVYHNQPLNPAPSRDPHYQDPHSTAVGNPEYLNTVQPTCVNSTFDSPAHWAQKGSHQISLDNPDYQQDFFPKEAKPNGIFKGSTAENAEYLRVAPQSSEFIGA

This experiment concerns the target T1, human EGFR (d746-750/T790M/C797S) (Homo sapiens, UniProt P00533, C797S/DEL746-750/T790M).
T1 construct: human EGFR (d746-750/T790M/C797S) (668-end, SignalChem); purchased SignalChem
As to the kind of experiment: EGFR C797S enzyme inhibition activity (ADP-Glo kinase assay). The experiment is classed as biochemical. The note with it: purified enzyme 3 ng, ATP 5 μM, 25° C., 1 hour, luminescence; read-out: EGFR DTC Enzyme IC50. Here is the method: <Experimental Example 1> Evaluation of EGFR C797S Enzyme Inhibition Activity
The compounds according to the present invention were reacted together with purified human EGFR (d746-750/T790M/C797S) (668-end, SignalChem) enzyme and a specific substrate and evaluated for enzyme inhibitory activity as described below. The reaction buffer consisted of 40 mM Tris-HCl pH 7.4, 20 mM MgCl2, 0.5 mg/ml BSA, and 50 μM DTT, and all reactions of the test substances were performed in reaction buffers. The compounds were serially diluted in 12 steps from a 10 mM DMSO stock, and the enzyme activity was measured at the final compound concentrations of 10, 3, 1, 0.3, 0.1, 0.03, 0.01, 0.003, 0.001, 0.0003, 0.0001, and 0 μM. In the assay, human EGFR (d746-750/T790M/C797S) (3 ng) enzyme was reacted with purified ATP (5 μM) and enzyme substrate (0.2 μg) at 25° C. for 1 hour, and the enzyme activity was determined using the in vitro ADP-Glo™ kinase assay (Promega). The enzyme activity inhibition was measured via luminescence by reacting the enzyme activity reaction solution, ADP-Glo reaction solution, and enzyme activity detection solution in a 2:2:1 ratio. Based on the luminescence of the enzyme activity of the solvent control group that was not treated with the compound, the degree of the enzyme activity inhibition depending on the treatment concentration of each compound was calculated, wherein the concentration of each compound that inhibited the enzyme activity by 50% was determined as the IC50 (nM) value, which was obtained using GraphPad Prism 8.4.3 (GraphPad software Inc., San Diego).
(In ADP-Glo the light output rises with the ADP produced.)
The term IC50 denotes the concentration that inhibits the measured activity by half. Turning to `CC(C)Nc1cc(Nc2ccnc(-c3cnn(S(=O)(=O)C4CC4)c3)n2)ncc1C(=O)NC1CCN(S(C)(=O)=O)CC1` [Example 69, 6-((2-(1-(cyclopropylsulfonyl)-1H-pyrazol-4-yl)pyrimidin-4-yl)amino)-4-(isopropylamino)-N-(1-(methylsulfonyl)piper-idin-4-yl)nicotinamide], the IC50 was less than 50 nM. In the case of `CC(C)Nc1cc(Nc2ccnc(N3CCN(C)CC3)n2)ncc1C(=O)N1CC(CS(C)(=O)=O)C1` [Example 11, (4-(isopyropylamino)-4-((2-(4-methylpiperazin-1-yl)pyrimidin-4-yl)amino)pyridin-3-yl)(3-((methylsulfonyl)meth-yl)azetidin-1-yl)methanone] it was 50 to 500 nM. `CC(C)Nc1cc(Nc2ccnc(-c3cnn(S(=O)(=O)C4CC4)c3)n2)ncc1C(=O)NCCc1ccccc1` [Example 52, 6-((2-(1-(cyclopropylsulfonyl)-1H-pyrazol-4-yl)pyrimidin-4-yl)amino)-4-(isopropylamino)-N-phenethylnicotinamide]: the concentration for half-maximal inhibition (IC50) is less than 50 nM.

For the compound `CNCCCNC(=O)c1cnc(Nc2ccnc(-c3cn[nH]c3)n2)cc1NC(C)C` [Example 59, 6-((2-(1H-pyrazol-4-yl)pyrimidin-4-yl)amino)-4-(isopropylamino)-N-(3-(methylamino)propyl) nicotinamide], the IC50 was less than 50 nM. For `CC(C)Nc1cc(Nc2ccnc(N3CCNC(=O)C3)n2)ncc1C(=O)N1CC(CS(C)(=O)=O)C1` [Example 45, 4-(4-((4-(isopropylamino)-5-(3-((methylsulfonyl)meth-yl)azetidine-1-carbonyl)pyridin-2-yl)amino)pyrimidin-2-yl)piperazin-2-one], the IC50 fell in the range of 50 to 500 nM. In the case of `CC(C)Nc1cc(Nc2ccnc(-c3cnn(S(=O)(=O)C4CC4)c3)n2)ncc1C(=O)N(C)CC#N` [Example 28, N-(cyanomethyl)-6-((2-(1-(cyclopropylsulfonyl)-1H-pyrazol-4-yl)pyrimidin-4-yl)amino)-4-(isopropylamino)-N-methylnicotinamide], the IC50 lay within 50 to 500 nM. For the compound `CC(C)Nc1cc(Nc2ccnc(-c3cnn(S(=O)(=O)C4CC4)c3)n2)ncc1C(=O)N1CC(N(C)C)C1` [Example 37, (6-((2-(1-(cyclopropylsulfonyl)-1H-pyrazol-4-yl)pyrimidin-4-yl)amino)-4-(isopropylamino)pyri-din-3-yl)(3-(dimethylamino)azeti-din-1-yl)methanone], the IC50 was less than 50 nM.

As for `CC(C)Nc1cc(Nc2ccnc(-c3cn[nH]c3)n2)ncc1C(=O)NC1CCNC1` (stereo not shown) [Example 67, 6-((2-(1H-pyrazol-4-yl)pyrimidin-4-yl)amino)-4-(isopropylamino)-N-(pyrrolidin-3-yl)nicotinamide], the IC50 is less than 50 nM.

With `CC(C)Nc1cc(Nc2ccnc(-c3cnn(S(=O)(=O)C4CC4)c3)n2)ncc1C(=O)Nc1cc(N2CCC(N3CCN(C)CC3)CC2)cc(S(C)(=O)=O)c1` [Example 75, 6-((2-(1-(cyclopropylsulfonyl)-1H-pyrazol-4-yl)pyrimidin-4-yl)amino)-4-(isopropylamino)-N-(3-(4-(4-methylpiperazin-1-yl)piperidin-1-yl)-5-(methyl-sulfonyl)phenyl) nicotinamide], the IC50 was less than 50 nM.

Turning to `Cn1cc(Nc2cc(Nc3ccnc(-c4cnn(S(=O)(=O)C5CC5)c4)n3)ncc2C(=O)N2CC(CS(C)(=O)=O)C2)cn1` [Example 22, (6-((2-(1-(cyclopropylsulfonyl)-1H-pyrazol-4-yl)pyrimidin-4-yl)amino)-4-((1-methyl-1H-pyrazol-4-yl)amino)pyridin-3-yl)(3-((methylsulfonyl)meth-yl)azetidin-1-yl)methanone], the concentration for half-maximal inhibition (IC50) was 50 to 500 nM. As for `CC(C)Nc1cc(Nc2ccnc(-c3cnn(S(=O)(=O)C4CC4)c3)n2)ncc1C(=O)NC[C@H]1CCCN1` [Example 77, (R)-6-((2-(1-(cyclopropylsulfonyl)-1H-pyrazol-4-yl)pyrimidin-4-yl)amino)-4-(isopropylamino)-N-(pyrrolidin-2-ylmethyl)nicotinamide], the 50% inhibitory concentration (IC50) was less than 50 nM. The same measure for `C[C@H]1CCOc2c(cnn2C)-c2nccc(n2)Nc2cc(c(C(=O)Nc3cccc(C(F)(F)F)c3)cn2)N1` [Example 101, (S)-1^1,6-dimethyl-N-(3-(trifluoromethyl)phe-nyl)-1^1H-9-oxa-3,5-diaza-2(2,4)-pyrimidina-4(2,4)-pyridina-1(4,5)-pyrazolacyclo-nonaphane-4^5-carboxamide]: 50 to 500 nM; for `CC(C)Nc1cc(Nc2ccnc(-c3cnn(S(=O)(=O)C4CC4)c3)n2)ncc1NC(=O)Cc1ccc(C#N)cc1` [Example 85, 2-(4-cyanophenyl)-N-(6-((2-(1-(cyclopropylsulfonyl)-1H-pyrazol-4-yl)pyrimidin-4-yl)amino)-4-(isopropylamin)pyri-din-3-yl)acetamide]: less than 50 nM. As to `C[C@H]1CCOc2c(cnn2C)-c2nccc(n2)Nc2cc(c(C(=O)O)cn2)N1` [Example 117, (S)-1^1,6-dimethyl-1^1H-9-oxa-3,5-diaza-2(2,4)-pyrimidina-4(2,4)-pyridina-1(4,5)-pyrazolacyclo-nonaphane-4^5-carboxylic acid], the IC50 is less than 50 nM. Regarding `CC(C)Nc1cc(Nc2ccnc(-c3cnn(S(=O)(=O)C4CC4)c3)n2)ncc1C(=O)N(C)CCN(C)C` [Example 26, 6-((2-(1-(cyclopropylsulfonyl)-1H-pyrazol-4-yl)pyrimidin-4-yl)amino)-N-(2-(dimethylamino)ethyl)-4-(isopropylamino)-N-methylnicotinamide], the IC50 fell in the range of 50 to 500 nM. For `CC(C)Nc1cc(Nc2ccnc(-c3cnn(S(=O)(=O)C4CC4)c3)n2)ncc1C(=O)NCCC(C)c1ccccc1` (stereo not shown) [Example 54, 6-((2-(1-(cyclopropylsulfonyl)-1H-pyrazol-4-yl)pyrimidin-4-yl)amino)-4-(isopropylamino)-N-(3-phenylbutyl)nicotina-mide], the IC50 fell in the range of 50 to 500 nM. As to `CC(C)Nc1cc(Nc2ccnc(N3CCN(S(C)(=O)=O)CC3)n2)ncc1C(=O)N1CC(CS(C)(=O)=O)C1` [Example 44, (4-(isopropylamino)-6-((2-(4-(methylsulfonyl)piper-azin-1-yl)pyrimidin-4-yl)amino)pyridin-3-yl)(3-((methylsulfonyl)meth-yl)azetidin-1-yl)methanone], the IC50 fell in the range of 50 to 500 nM. For the compound `CNCCCNC(=O)c1cnc(Nc2ccnc(-c3cnn(S(=O)(=O)C4CC4)c3)n2)cc1NC(C)C` [Example 60, 6-((2-(1-(cyclopropylsulfonyl)-1H-pyrazol-4-yl)pyrimidin-4-yl)amino)-4-(isopropoylamino)-N-(3-(methylamino)propyl) nicotinamide], the IC50 was less than 50 nM. `CO[C@H]1CCN(c2nccc(Nc3cc(NC4CCOC4)c(C(=O)N4CC(CS(C)(=O)=O)C4)cn3)n2)C[C@H]1F` (relative stereo) [Example 14, (6-((2-(cis-3-fluoro-4-methoxypiperidin-1-yl)pyrimidin-4-yl)amino)-4-((tetrahydrofuran-3-yl)amino)pyridin-3-yl)(3-((methylsulfonyl)meth-yl)azetidin-1-yl)methanone]: the IC50 is less than 50 nM.

For `C[C@@H]1CCOc2c(cnn2C)-c2nccc(n2)Nc2cc(c(C(=O)NCC#N)cn2)N1` [Example 84, (R)-N-(cyanomethyl)-1^1,6-dimethyl-1^1H-9-oxa-3,5-diaza-2(2,4)-pyrimidina-4(2,4)-pyridina-1(4,5)-pyrazolacyclo-nonaphane-4^5-carboxamide], the IC50 is less than 50 nM. With `CO[C@H]1CCN(c2nccc(Nc3cc(NC(C)C)c(C(=O)N4CC(CS(C)(=O)=O)C4)cn3)n2)C[C@H]1F` (relative stereo) [Example 2, (6-((2-(cis-3-fluoro-4-methoxypiperidin-1-yl)pyrimidin-4-yl)amino)-4-(isopropylamino)pyri-din-3-yl)(3-((methylsulfonyl)meth-yl)azetidin-1-yl)methanone], the IC50 is less than 50 nM.

`CC(C)Nc1cc(Nc2ccnc(-c3cnn(CC4CC4)c3)n2)ncc1C(=O)N1CC(CS(C)(=O)=O)C1` [Example 43, (6-((2-(1-(cyclopropylmethyl)-1H-pyrazol-4-yl)pyrimidin-4-yl)amino)-4-(isopropylamino)pyri-din-3-yl)(3-((methylsulfonyl)meth-yl)azetidin-1-yl)methanone]: the IC50 is less than 50 nM.
